What all share (assay type): in vivo, male Wistar rats
The nature of assay [1]: vasodilating activity (hypotensive activity): maximum fall in blood pressure in anesthetized rats. The following applies: maximum fall in blood pressure during 40 minutes after 1 mg/kg i.v., three animals. The method, then:
(§1) Experiments were done using male Wistar rats weighing between 300 and 400 g, anesthetized with sodium pentobarbital (60 mg/kg i.p.). The blood pressure was directly measured by connecting a cannula inserted in the femoral artery to a pressure transducer and the heart rate was calculated from the pulse waves of the blood pressure tracings. Each value shown here was obtained from three animals. The test compounds were individually dissolved in physiological saline solution or a 0.01 N aqueous solution of hydrochloric acid.
Each test compound dissolved in physiological saline solution or 0.01 N hydrochloric acid was intravenously injected into rats in a fixed dose of 1 mg/kg and the blood pressure was continuously monitored for 40 minutes. The maximum fall in blood pressure during this period was determined and taken as the hypotensive activity of each compound.

The target of another assay is T1, β1-adrenoceptors (Rattus norvegicus, UniProt P18090).
T1 construct: Experiments were done using male Wistar rats weighing between 300 and 400 g, anesthetized with sodium pentobarbital; from tissue; host or cells: whole animal (anesthetized male Wistar rats), cardiac response in vivo
T1 sequence (P18090 whole entry): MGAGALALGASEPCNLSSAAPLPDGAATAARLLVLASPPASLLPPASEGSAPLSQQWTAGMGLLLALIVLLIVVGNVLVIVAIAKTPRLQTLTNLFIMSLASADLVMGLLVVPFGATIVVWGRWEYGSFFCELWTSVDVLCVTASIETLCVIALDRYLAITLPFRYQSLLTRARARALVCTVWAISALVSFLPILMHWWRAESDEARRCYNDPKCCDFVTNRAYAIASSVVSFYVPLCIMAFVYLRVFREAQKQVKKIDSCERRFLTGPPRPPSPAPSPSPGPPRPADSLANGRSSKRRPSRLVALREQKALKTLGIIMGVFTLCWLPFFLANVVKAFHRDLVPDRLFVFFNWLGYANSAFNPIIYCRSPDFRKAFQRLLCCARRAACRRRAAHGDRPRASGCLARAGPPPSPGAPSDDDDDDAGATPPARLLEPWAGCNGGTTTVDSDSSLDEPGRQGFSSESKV
The assay can be described thus: β-adrenoceptor blocking activity: inhibition of the isoproterenol-induced increase in heart rate in anesthetized rats. The following applies: iv, 0.05 h. As to the method: as §1
The increased heart rate before injection of the test compound was represented by H1. Three minutes after i.v. injection of the test compound, isoproterenol (0.1 µg/kg i.v.) was again administered and then the change in heart rate was measured. The maximum increase in heart rate after injection of the test compound was designated as H2. From these values, the percent inhibition of the change in heart rate was calculated in accordance with the following equation.
Percent inhibition of the heart rate [formula]
(§2) By repeating the procedure mentioned above at various doses of the test compounds, dose-response curves were prepared.

Another assay relates to β2-adrenoceptor. Nature of the assay: β-adrenoceptor blocking activity: inhibition of the isoproterenol-induced fall in blood pressure in anesthetized rats. The following applies: 50 % inhibition of fall in blood pressure by isoproterenol 0.1 µg/kg i.v. The method, then:
as §1, §2

The mark [2] stands for this setting: read-out: β-adrenoceptor blocking action ID50.

Structures are written as SMILES. Where two headings read alike, the source gives them in different places.

As for `Cc1cccc(OCC(O)CNC(C)(C)COc2ccc(NN)nn2)c1Cl` (stereo not shown) [F, 1-(2-chloro-3-methylphenoxy)-3-[1,1-dimethyl-2-(3-hydrazino-6-pyridazinyloxy)ethylamino]-2-propanol], in assay [1], the Hypotensive action result was “++ (a fall in blood pressure of 25 to 34 mmHg)”. Further, on β1-adrenoceptors (setting [2]), the ED50 was 0.08 mg/kg.

Turning to `CC(C)(COc1ccc(NN)nn1)NCC(O)COc1ccccc1C#N` (stereo not shown) [I, 1-(2-cyanophenoxy)-3-[1,1-dimethyl-2-(3-hydrazino-6-pyridazinyloxy)ethylamino]-2-propanol], the Hypotensive action entry in assay [1] is given as “+++ (35 mmHg or more)”. Besides, at β1-adrenoceptors (setting [2]), the ED50 came to 0.02 mg/kg. In addition, the “β-adrenoceptor blocking action ID50 β2” value in the assay on β2-adrenoceptor is 0.1 mg/kg i.v.

As for `CC(C)NCC(O)COc1ccc(CC(N)=O)cc1` (stereo not shown) [Atenolol, reference compound], the ED50 at β1-adrenoceptors (read-out: β-adrenoceptor blocking action ID50 β1) was determined as 0.05 mg/kg. Moreover, the “β-adrenoceptor blocking action ID50 β2” value in the assay with β2-adrenoceptor is listed as 1.5 mg/kg i.v.

On to `C=CCOc1ccccc1OCC(O)CNC(C)(C)COc1ccc(NN)nn1` (stereo not shown) [P, 1-(2-allyloxyphenoxy)-3-[1,1-dimethyl-2-(3-hydrazino-6-pyridazinyloxy)ethylamino]-2-propanol], for which the Hypotensive action entry in assay [1] is “++ (a fall in blood pressure of 25 to 34 mmHg)”. For the same compound, the ED50 at β1-adrenoceptors (setting [2]) was 0.1 mg/kg.

`CC(C)=NNc1ccc(OCC(C)(C)NCC(O)COc2cc(C)ccc2Cl)nn1` (stereo not shown) [G, 1-(2-chloro-5-methylphenoxy)-3-[1,1-dimethyl-2-(3-isopropylidenehydrazino-6-pyridazinyloxy)ethylamino]-2-propanol]: the Hypotensive action entry in assay [1] is reported as “++ (a fall in blood pressure of 25 to 34 mmHg)”. Besides, the ED50 at β1-adrenoceptors (setting [2]) was determined as 0.15 mg/kg.

As to `CC(C)(COc1ccc(NN)nn1)NCC(O)COc1ccccc1Cl` (stereo not shown) [B, 1-(2-chlorophenoxy)-3-[1,1-dimethyl-2-(3-hydrozino-6-pyridazinyloxy)ethylamino]-2-propanol], the Hypotensive action result in assay [1] was “+++ (35 mmHg or more)”. Also, the ED50 on β1-adrenoceptors (setting [2]) turned out to be 0.008 mg/kg. For the same compound, in the assay on β2-adrenoceptor, the “β-adrenoceptor blocking action ID50 β2” value came to 0.23 mg/kg i.v.

As to `Cc1ccc(C#N)c(OCC(O)CNC(C)(C)COc2ccc(NN)nn2)c1` (stereo not shown) [K, 1-(2-cyano-5-methylphenoxy)-3-[1,1-dimethyl-2-(3-hydrazino-6-pyridazinyloxy)ethylamino]-2-propanol], the Hypotensive action entry in assay [1] is listed as “+++ (35 mmHg or more)”. Further, at β1-adrenoceptors (setting [2]), the ED50 stood at 0.05 mg/kg. The “β-adrenoceptor blocking action ID50 β2” value in the assay on β2-adrenoceptor is on record as 0.1 mg/kg i.v.

In the case of `CCOCc1ccccc1OCC(O)CNC(C)(C)COc1ccc(NN)nn1` (stereo not shown) [M, 1-(2-ethoxymethylphenoxy)-3-[1;1-dimethyl-2-(3-hydrazino-6-pyridazinyloxy)ethylamino]-2-propanol], the Hypotensive action result in assay [1] is on record as “++ (a fall in blood pressure of 25 to 34 mmHg)”. Further, the ED50 on β1-adrenoceptors (setting [2]) came out at 0.06 mg/kg.

Turning to `CC(C)(COc1ccc(NN)nn1)NCC(O)COc1ccccc1` (stereo not shown) [A, 1-penoxy-3-[1,1-dimethyl-2-(3-hydrozino-6-pyridazinyloxy)ethylamino]-2-propanol], the Hypotensive action result in assay [1] is listed as “++ (a fall in blood pressure of 25 to 34 mmHg)”. For the same compound, the ED50 on β1-adrenoceptors (setting [2]) is 0.04 mg/kg.

As to `Cc1ccc(Cl)c(OCC(O)CNC(C)(C)COc2ccc(NN)nn2)c1` (stereo not shown) [H, 1-(2-chloro-5-methylphenoxy)-3-[1,1-dimethyl-2-(3-hydrazino-6-pyridazinyloxy)ethylamino]-2-propanol], the Hypotensive action entry in assay [1] is recorded as “++ (a fall in blood pressure of 25 to 34 mmHg)”. Further, at β1-adrenoceptors (setting [2]), the ED50 amounted to 0.15 mg/kg.

Regarding `C#Cc1ccccc1OCC(O)CNC(C)(C)COc1ccc(NN)nn1` (stereo not shown) [R, 1-(2-ethinylphenoxy)-3-[1,1-dimethyl-2-(3-hydrazino-6-pyridazinyloxy)ethylamino]-2-propanol], the Hypotensive action result in assay [1] was “+++ (35 mmHg or more)”. For the same compound, the ED50 at β1-adrenoceptors (setting [2]) is 0.02 mg/kg. Moreover, the “β-adrenoceptor blocking action ID50 β2” value with β2-adrenoceptor is “No antagonistic action at 0.1”.

On to `Cc1ccccc1OCC(O)CNC(C)(C)COc1ccc(NN)nn1` (stereo not shown) [C, 1-(2-methylphenoxy)-3-[1,1-dimethyl-2-(3-hydrazino-6-pyridazinyloxy)ethylamino]-2-propanol], for which the Hypotensive action entry in assay [1] is given as “+++ (35 mmHg or more)”. Also, the ED50 at β1-adrenoceptors (setting [2]) came out at 0.015 mg/kg. Also, the “β-adrenoceptor blocking action ID50 β2” value in the assay on β2-adrenoceptor came out at 0.45 mg/kg i.v.

Consider `CC(C)(COc1ccc(NN)nn1)NCC(O)COc1cc(Cl)ccc1C#N` (stereo not shown) [J, 1-(2-cyano-5-chlorophenoxy)-3-[1,1-dimethyl-2-(3-hydrazino-6-pyridazinyloxy)ethylamino]-2-propanol], for which the Hypotensive action result in assay [1] is on record as “++ (a fall in blood pressure of 25 to 34 mmHg)”. Further, the ED50 at β1-adrenoceptors (setting [2]) was 0.12 mg/kg.

Consider `CCOCCc1ccccc1OCC(O)CNC(C)(C)COc1ccc(NN)nn1` (stereo not shown) [O], for which, in assay [1], the Hypotensive action result was “++ (a fall in blood pressure of 25 to 34 mmHg)”. Also, the ED50 at β1-adrenoceptors (setting [2]) was found to be 0.16 mg/kg.

As for `Cc1ccccc1OCC(O)CNC(C)(C)CSc1ccc(NN)nn1` (stereo not shown) [Q, 1-(2-methylphenoxy)-3-[1,1-dimethyl-2-(3-hydrazino-6-pyridazinylthio)ethylamino]-2-propanol], the Hypotensive action entry in assay [1] is listed as “++ (a fall in blood pressure of 25 to 34 mmHg)”. In addition, the ED50 on β1-adrenoceptors (setting [2]) came out at 0.04 mg/kg.

With `COCc1ccccc1OCC(O)CNC(C)(C)COc1ccc(NN)nn1` (stereo not shown) [L, 1-(2-methoxymethylphenoxy)-3-[1,1-dimethyl-2-(3-hydrazino-6-pyridazinyloxy)ethylamino]-2-propanol], in assay [1], the Hypotensive action result is “+++ (35 mmHg or more)”. Moreover, the ED50 at β1-adrenoceptors (setting [2]) was 0.03 mg/kg.

As for `CCCc1ccccc1OCC(O)CNC(C)(C)COc1ccc(NN)nn1` (stereo not shown) [E, 1-(2-propylphenoxy)-3-[1,1-dimethyl-2-(3-hydrazino-6-pyridazinyloxy)ethylamino]-2-propanol], in assay [1], the Hypotensive action entry is “++ (a fall in blood pressure of 25 to 34 mmHg)”. At β1-adrenoceptors (setting [2]), the ED50 came to 0.2 mg/kg.

For the compound `CCc1ccccc1OCC(O)CNC(C)(C)COc1ccc(NN)nn1` (stereo not shown) [D, 1-(2-ethylphenoxy)-3-[1,1-dimethyl-2-(3-hydrazino-6-pyridazinyloxy)ethylamino]-2-propanol], the Hypotensive action result in assay [1] is “+++ (35 mmHg or more)”. Besides, at β1-adrenoceptors (setting [2]), the ED50 turned out to be 0.2 mg/kg.

As to `COCCc1ccccc1OCC(O)CNC(C)(C)COc1ccc(NN)nn1` (stereo not shown) [N, 1-[2-(2-methoxyethyl)phenoxy]-3-[1,1-dimethyl-2-(3-hydrazino-6-pyridazinyloxy)ethylamino]-2-propanol], the Hypotensive action entry in assay [1] was “+++ (35 mmHg or more)”. Moreover, at β1-adrenoceptors (setting [2]), the ED50 turned out to be 0.08 mg/kg.

For the origin of these results see patent EP0097202A1, “Hydrazinopyridazine compound, process for production thereof, and use thereof as medicament” (TEIKOKU HORMONE MFG. CO., LTD., priority 1982, dated 1984).
